A short description of data set [1]: Solid state (polymorphic) stability of crystalline forms on storage, humidity, heat, pressure or grinding. It counts as physicochemical. As to conditions: for stability (conversion to any other solid state form): 'stable' as defined in b57: less than 20% conversion at 60% RH/RT or 75% RH/40° C. for at least 1 month, or at 80-100% RH 7 days, 100° C. 30 minutes, 3 Ton 1 minute, strong grinding. On the procedure: As used herein the term “stable” in relation to crystalline Branaplam and salts thereof refers to less than 20%, less than 10%, less than 5%, less than 2%, less than 1%, or less than 0.5% conversion of crystalline Branaplam and salts thereof to any other solid state form of Branaplam when kept in storage for long term stability e.g. 60% RH/RT or 75% RH/40° C. for at least 1 month. Alternatively, crystalline Branaplam and salts thereof are stable when exposed to high humidity e.g. 80-100% RH for 7 days, high temperature e.g. 100° C. for 30 minutes, high mass pressure e.g. 3 Ton for 1 minute or upon strong grinding.

The nature of data set [2]: Hygroscopicity: water absorption at 80% RH for 24 hours at RT, e.g. by TGA. Conditions: 'non-hygroscopic' as defined in b56: less than 0.2% (w/w) absorption of water at 80% RH for 24 hours at RT. In kind it is physicochemical. On the procedure: As used herein the term non-hygroscopic in relation to crystalline Branaplam and salts thereof refers to less than 0.2% (w/w) absorption of water by the crystalline Branaplam, when exposed to 80% relative humidity (“RH”) for 24 hours at room temperature (“RT”), as determined, for example, by TGA.

Where a name gives a salt, the structure may show the parent alone.

Take `CC1(C)CC(Oc2ccc(-c3ccc(-c4cn[nH]c4)cc3O)nn2)CC(C)(C)N1` [Branaplam hydrochloride Form C3, Branaplam hydrochloride]: the “stability upon heating and humidity” value in data set [1] (heating and humidity, b57 gives e.g. 100° C. for 30 minutes, 80-100% RH for 7 days) is “stable upon heating and humidity”.

For the compound `CC1(C)CC(Oc2ccc(-c3ccc(-c4cn[nH]c4)cc3O)nn2)CC(C)(C)N1` [Branaplam Form B1, Branaplam], the “stability (conversion to any other solid state form)” value in data set [1] is reported as “stable”. Regarding `CC1(C)CC(Oc2ccc(-c3ccc(-c4cn[nH]c4)cc3O)nn2)CC(C)(C)N1` [Branaplam hydrochloride Form C1, Branaplam hydrochloride], in data set [1] (hydrochloride), the “stability (conversion to any other solid state form)” value is “surprisingly stable”. In data set [2], the hygroscopicity entry is “non-hygroscopic”.
